How the values were obtained:
Assay type in all cases: in vivo
[1] = test system: Urtica dioica L. (URTDI, stinging nettle); assay: Postemergence field weed control, URTDI; settings: 28 DAA
Protocol: (§1) Evaluation of Postemergence Herbicidal Activity of Mixtures under Field Conditions Methodology
(§2) Trial sites were located in various countries around the world, including Brazil, United States, Hungary, Indonesia and Malaysia, in non-crop and perennial tree crop plantations. Trials were conducted using normal small plot R&D trials using standard research methodology. Trial plots were between 2 to 4 meters (m) wide by 3 to 10 m long. All treatments were applied using a randomized complete block or factorial trial design with 3-4 replications per treatment. The trial sites had naturally occurring populations of weeds. The weed spectrum included, but was not limited to, scarlet pimpernel (Anagallis arvensis L., ANGAR), tropical carpetgrass (Axonopus compressus, AXOCO), Canada thistle (Cirsium arvense (L.) Scop., CIRAR), calopo (Calopogonium mucunoides, CLOMU), Bengal dayflower (Commelina benghalensis L., COMBE), field bindweed (Convolvus arvensis, CONAR), horseweed (Conyza canadensis (L.) Cronq., ERICA), kochia (Kochia scoparia (L.) Schrad., KCHSC), common mallow (Malva neglecta Wallr., MALNE), African mile-a-minute (Mikania cordata (Burm. f.) B. L., MIKCO), slender panicgrass (Ottochloa nodosa, OTTNO), paspalum (Paspalum conjugatum Bergius, PASCO), wild buckwheat (Polygonum convolvulus L., POLCO) and stinging nettle (Urtica dioica L., URTDI). […]

[2] = test system: Convolvus arvensis (CONAR, field bindweed); assay: Postemergence field weed control, CONAR; settings: 59 DAA
Protocol: as §1
(§3) Trial sites were located in various countries around the world, including Brazil, United States, Hungary, Indonesia and Malaysia, in non-crop and perennial tree crop plantations. Trials were conducted using normal small plot R&D trials using standard research methodology. Trial plots were between 2 to 4 meters (m) wide by 3 to 10 m long. All treatments were applied using a randomized complete block or factorial trial design with 3-4 replications per treatment. The trial sites had naturally occurring populations of weeds. The weed spectrum included, but was not limited to, scarlet pimpernel (Anagallis arvensis L., ANGAR), tropical carpetgrass (Axonopus compressus, AXOCO), Canada thistle (Cirsium arvense (L.) Scop., CIRAR), calopo (Calopogonium mucunoides, CLOMU), Bengal dayflower (Commelina benghalensis L., COMBE), field bindweed (Convolvus arvensis, CONAR), horseweed (Conyza canadensis (L.) Cronq., ERICA), kochia (Kochia scoparia (L.) Schrad., KCHSC), common mallow (Malva neglecta Wallr., MALNE), African mile-a-minute (Mikania cordata (Burm. f.) B. L., MIKCO), slender panicgrass (Ottochloa nodosa, OTTNO), paspalum (Paspalum conjugatum Bergius, PASCO), wild buckwheat (Polygonum convolvulus L., POLCO) and stinging nettle (Urtica dioica L., URTDI).
(§4) Treatments consisted of tank mixes of commercially available formulations of fluoroxypyr-meptyl ester (Starane® 200, Starane® 250, Starane® Ultra) and glyphosate (Roundup® isopropylammonium salt, Glizmax, Gliz) applied in water. The application volume varied from location to location but was from 100 to 450 liters per hectare (L/ha). Application was made using a precision gas backpack sprayer at pressures ranging from 150 to 300 kPA pressure using 2 to 4 m booms utilizing 4 to 8 flat fan nozzles to broadcast the treatments to the weeds and to the soil.
(§5) The treated and control plots were rated blind at various intervals after application. Ratings were based on Percent (%) Visual weed control, where 0 corresponds to no control and 100 corresponds to complete control.
(§6) Colby's equation was used to determine the herbicidal effects expected from the mixtures (Colby, S. R. Calculation of the synergistic and antagonistic response of herbicide combinations. Weeds 1967 15, 20-22).
(§7) The following equation was used to calculate the expected activity of mixtures containing two active ingredients, A and B:
(§8) A=observed efficacy of active ingredient A at the same concentration as used in the mixture;
(§9) B=observed efficacy of active ingredient B at the same concentration as used in the mixture.

[3] = test system: Commelina benghalensis L. (COMBE, Bengal dayflower); assay: Postemergence field weed control, COMBE; settings: 28 DAA
Protocol: as §1, §2

[4] = test system: Axonopus compressus (AXOCO, tropical carpetgrass); assay: Postemergence field weed control, AXOCO; settings: 70 DAA
Protocol: as §1, §2

[5] = test system: Calopogonium mucunoides (CLOMU, calopo); assay: Postemergence field weed control, CLOMU; settings: 70 DAA
Protocol: as §1, §2

[6] = test system: Kochia scoparia (L.) Schrad. (KCHSC, kochia); assay: Postemergence field weed control, KCHSC; settings: 36 DAA
Protocol: as §1, §2

[7] = test system: Mikania cordata (MIKCO, African mile-a-minute); assay: Postemergence field weed control, MIKCO; settings: 28 DAA
Protocol: as §1, §2

[8] = test system: Ottochloa nodosa (OTTNO, slender panicgrass); assay: Postemergence field weed control, OTTNO; settings: 70 DAA
Protocol: as §1, §2

[9] = test system: Anagallis arvensis L. (ANGAR, scarlet pimpernel); assay: Postemergence field weed control, ANGAR; settings: 14 DAA
Protocol: as §1, §2

[10] = test system: Cirsium arvense (L.) Scop. (CIRAR, Canada thistle); assay: Postemergence field weed control, CIRAR
Protocol: as §1, §3, §4, §5, §6, §7, §8, §9

[11] = test system: Paspalum conjugatum Bergius (PASCO, sour paspalum); assay: Postemergence field weed control, PASCO; settings: 70 DAA
Protocol: as §1, §2

[12] = test system: Polygonum convolvulus L. (POLCO, wild buckwheat); assay: Postemergence field weed control, POLCO; settings: 14 DAA
Protocol: as §1, §3, §4, §5, §6, §7, §8, §9

[13] = test system: Malva neglecta Wallr. (MALNE, common mallow); assay: Postemergence field weed control, MALNE; settings: 14 DAA
Protocol: as §1, §2

[14] = test system: Conyza canadensis (L.) Cronq. (ERICA, horseweed); assay: Postemergence field weed control, ERICA; settings: 43 DAA
Protocol: as §1, §3, §4
The treated and control plots were rated blind at various intervals after application. […]

[15] = fluroxypyr-meptyl 200 grams ae/ha alone
[16] = fluroxypyr-meptyl 200 grams ae/ha alone, Table 3
[17] = fluroxypyr-meptyl 400 grams ae/ha alone, Table 4
[18] = fluroxypyr-meptyl 53 gae/ha alone
[19] = glyphosate-isopropylammonium 500 gae/ha alone
[20] = glyphosate-isopropylammonium 1000 grams ae/ha alone

**Q.** For `CCCCCCC(C)OC(=O)COc1nc(F)c(Cl)c(N)c1Cl` (stereo not drawn) [Fluroxypyr-meptyl, fluoroxypyr-meptyl], which “URTDI Obs (Observed weed control)” value [1, 15] is on record?
**A.** 10%

**Q.** What about the “CONAR Obs (Observed weed control)” value [2, 16] of the same compound?
**A.** 47%

**Q.** And the “CONAR Obs (Observed weed control)” value ([2]; fluroxypyr-meptyl 300 grams ae/ha alone, Table 4)?
**A.** 50%

**Q.** And the “CONAR Obs (Observed weed control)” value [2, 17]?
**A.** 48%

**Q.** What about the “COMBE Obs (Observed weed control)” value [3, 15] of the same compound?
**A.** 36%

**Q.** What about the “AXOCO Obs (Observed weed control)” value [4, 18] of the same compound?
**A.** 0%

**Q.** What about the “CLOMU Obs (Observed weed control)” value [5, 18] of the same compound?
**A.** 69%

**Q.** What about the “KCHSC Obs (Observed weed control)” value ([6]; fluroxypyr-meptyl 67 grams ae/ha alone) of the same compound?
**A.** 48%

**Q.** What about the “MIKCO Obs (Observed weed control)” value ([7]; fluroxypyr-meptyl 50 grams ae/ha alone) of the same compound?
**A.** 42%

**Q.** What about the “OTTNO Obs (Observed weed control)” value [8, 18] of the same compound?
**A.** 0%

**Q.** What about the “ANGAR Obs (Observed weed control)” value ([9]; fluroxypyr-meptyl 400 grams ae/ha alone) of the same compound?
**A.** 0%

**Q.** And the “CIRAR Obs (Observed weed control)” value ([10]; fluroxypyr-meptyl 300 grams ae/ha alone, 59 DAA)?
**A.** 3%

**Q.** And the “CIRAR Obs (Observed weed control)” value ([10]; fluroxypyr-meptyl 400 grams ae/ha alone, 14 DAA)?
**A.** 7%

**Q.** And the “PASCO Obs (Observed weed control)” value [11, 18]?
**A.** 0%

**Q.** And the “POLCO Obs (Observed weed control)” value [12, 16]?
**A.** 52%

**Q.** And the “POLCO Obs (Observed weed control)” value ([12]; fluroxypyr-meptyl 400 grams ae/ha alone, Table 3)?
**A.** 68%

**Q.** And the “POLCO Obs (Observed weed control)” value [12, 17]?
**A.** 60%

**Q.** And the “MALNE Obs (Observed weed control)” value [13, 15]?
**A.** 48%

**Q.** What about the “ERICA Obs (Observed weed control)” value ([14]; fluroxypyr-meptyl 140 grams ae/ha alone) of the same compound?
**A.** 4%

**Q.** Which “URTDI Obs (Observed weed control)” value ([1]; glyphosate-isopropylammonium 1100 grams ae/ha alone) does the source give for `O=C(O)CNCP(=O)(O)O` [Glyphosate-isopropylammonium, glyphosate-isopropylammonium] here?
**A.** 24%

**Q.** And the “CONAR Obs (Observed weed control)” value ([2]; glyphosate-isopropylammonium 1500 grams ae/ha alone, Table 4)?
**A.** 43%

**Q.** And the “CONAR Obs (Observed weed control)” value ([2]; glyphosate-isopropylammonium 2000 grams ae/ha alone, Table 3)?
**A.** 55%

**Q.** What about the “CONAR Obs (Observed weed control)” value ([2]; glyphosate-isopropylammonium 2000 grams ae/ha alone, Table 4) of the same compound?
**A.** 55%

**Q.** What about the “COMBE Obs (Observed weed control)” value ([3]; glyphosate-isopropylammonium 710 grams ae/ha alone) of the same compound?
**A.** 43%

**Q.** What about the “AXOCO Obs (Observed weed control)” value [4, 19] of the same compound?
**A.** 59%

**Q.** And the “CLOMU Obs (Observed weed control)” value [5, 19]?
**A.** 64%

**Q.** And the “KCHSC Obs (Observed weed control)” value ([6]; glyphosate-isopropylammonium 280 grams ae/ha alone)?
**A.** 23%

**Q.** What about the “MIKCO Obs (Observed weed control)” value ([7]; glyphosate-isopropylammonium 360 grams ae/ha alone) of the same compound?
**A.** 58%

**Q.** And the “OTTNO Obs (Observed weed control)” value [8, 19]?
**A.** 59%

**Q.** What about the “ANGAR Obs (Observed weed control)” value [9, 20] of the same compound?
**A.** 43%

**Q.** What about the “CIRAR Obs (Observed weed control)” value ([10]; glyphosate-isopropylammonium 1000 grams ae/ha alone, 14 DAA) of the same compound?
**A.** 58%

**Q.** What about the “CIRAR Obs (Observed weed control)” value ([10]; glyphosate-isopropylammonium 1000 grams ae/ha alone, 59 DAA) of the same compound?
**A.** 58%

**Q.** What about the “PASCO Obs (Observed weed control)” value [11, 19] of the same compound?
**A.** 59%

**Q.** What about the “POLCO Obs (Observed weed control)” value ([12]; glyphosate-isopropylammonium 1000 grams ae/ha alone, Table 3) of the same compound?
**A.** 25%

**Q.** And the “POLCO Obs (Observed weed control)” value ([12]; glyphosate-isopropylammonium 1000 grams ae/ha alone, Table 4)?
**A.** 25%

**Q.** And the “POLCO Obs (Observed weed control)” value ([12]; glyphosate-isopropylammonium 1500 grams ae/ha alone, Table 3)?
**A.** 60%

**Q.** And the “MALNE Obs (Observed weed control)” value [13, 20]?
**A.** 14%

**Q.** What about the “ERICA Obs (Observed weed control)” value ([14]; glyphosate-isopropylammonium 560 grams ae/ha alone) of the same compound?
**A.** 18%

**Q.** What about the “ERICA Obs (Observed weed control)” value ([14]; glyphosate-isopropylammonium 840 grams ae/ha alone) of the same compound?
**A.** 73%

Source: patent US20130157852A1, “HERBICIDAL COMPOSITION CONTAINING FLUROXYPYR AND GLYPHOSATE” (DOW AGROSCIENCES LLC, priority 2011, published 2013)
